In article PMC6081394, “Structural basis of cell wall anchoring by SLH domains in Paenibacillus alvei” (Nature Communications, 2018):

Key:
[1] = biological target: T1, S-layer protein SpaA (SpaASLH/G46A/G109A) (Paenibacillus alvei, UniProt C1JZ07, G46A/G109A); experiment: co-crystal structure (no binding detected by ITC)
T1 construct: SLH domain trimer, amino acids 21–193, Ser-Gly-Ser linker and C-terminal His6-tag
T1 sequence (C1JZ07 21-193 G46A/G109A): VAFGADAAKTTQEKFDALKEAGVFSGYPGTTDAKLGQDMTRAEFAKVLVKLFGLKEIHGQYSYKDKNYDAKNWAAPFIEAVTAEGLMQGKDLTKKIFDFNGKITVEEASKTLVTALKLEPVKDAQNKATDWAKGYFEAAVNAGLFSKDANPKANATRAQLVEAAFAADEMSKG

[2] = biological target: T2, S-layer protein SpaA (SpaASLH/G109A) (Paenibacillus alvei, UniProt C1JZ07, G109A); experiment: ITC and co-crystal structure; format: binding
T2 construct: SLH domain trimer, amino acids 21–193, Ser-Gly-Ser linker and C-terminal His6-tag

[3] = biological target: T3, S-layer protein SpaA (SpaASLH) (Paenibacillus alvei, UniProt C1JZ07); experiment: ITC and co-crystal structures; format: binding
T3 construct: SLH domain trimer, amino acids 21–193, Ser-Gly-Ser linker and C-terminal His6-tag
T3 sequence (C1JZ07 21-193): T1 sequence (C1JZ07 21-193 G46A/G109A)

[4] = biological target: T3, S-layer protein SpaA (SpaASLH); experiment: co-crystal structure (no binding detected by ITC)

SMILES	co-crystal structure (no binding detected by ITC) [1]	Kd [2] [nM]	Kd [3] [nM]	co-crystal structure (no binding detected by ITC) [4]
CO[C@@H]1O[C@@H]2CO[C@](C)(C(=O)O)O[C@H]2[C@H](O)[C@@H]1NC(C)=O [monosaccharide (M), 4,6-Pyr-β-D-ManNAcOMe]	Despite the lack of binding detected by ITC, ligand is again observed bound in the G2 pocket	226	29	
CO[C@@H]1O[C@@H]2CO[C@](C)(C(=O)O)O[C@H]2[C@H](O[C@@H]2O[C@H](CO)[C@@H](O)[C@H](O)[C@H]2NC(C)=O)[C@@H]1NC(C)=O [disaccharide, β-D-GlcNAc-(1 → 3)-4,6-Pyr-β-D-ManNAcOMe]				Despite the lack of binding measured by ITC, a co-crystal structure with the internal disaccharide was obtained
